Assay results published in patent publication US6251627A (priority 1998, dated 2001).

T1: K^b sol (soluble H-2K^b with murine β-2 microglobulin) (Mus musculus, UniProt P01901)
T1 construct: The cDNAs encoding K^b α1α2α3 domains (274 residues) and murine β-2 microglobulin (99 residues); made in house; host or cells: Drosophila S2/M3 cells, secreted into serum-free medium
T1 sequence (P01901 22-295): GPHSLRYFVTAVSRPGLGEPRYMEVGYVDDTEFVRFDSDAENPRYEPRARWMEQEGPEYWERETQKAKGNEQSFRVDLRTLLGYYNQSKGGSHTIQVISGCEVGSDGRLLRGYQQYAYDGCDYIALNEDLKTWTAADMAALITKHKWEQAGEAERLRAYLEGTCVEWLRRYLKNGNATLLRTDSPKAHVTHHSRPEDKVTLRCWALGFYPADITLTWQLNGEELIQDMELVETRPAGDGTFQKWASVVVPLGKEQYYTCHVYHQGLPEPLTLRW
T1 sequence (P01887 21-119 partner): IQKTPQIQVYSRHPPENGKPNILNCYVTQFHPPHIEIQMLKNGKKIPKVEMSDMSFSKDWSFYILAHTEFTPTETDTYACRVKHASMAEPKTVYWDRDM


What was measured:
[1] = target: T1, K^b sol (soluble H-2K^b with murine β-2 microglobulin); assay: biochemical; format: binding
B3/CD8 T-cell hybridoma = assay: antigen presentation assay with B3/CD8 T-cell hybridoma (IL-2 by CTLL 3H thymidine incorporation); format: cell-based, mouse; conditions: Drosophila cells transfected with K^b/β2; peptide in culture medium or protein osmotically loaded
Experimental: Osmotic loading of SC2 and 3T3 cells with ovalbumin protein was carried out as described by Moore, et al., Cell 54: 777-785 (1988). The assay procedure is as follows. In a 96-well dish, 1×10^5 Drosophila cells (with or without peptide/protein loaded) or 3T3 cells were cocultured with 1×10^5 B3/CD8 T-cell hybridoma cells in 200 μl of RPMI media supplemented with 10% fetal bovine serum. After 24 hours of incubation, 100 μl of the supernatant from these cultures was added to 100 μl of RPMI containing 5,000 CTLL cells. The cells were cocultured for 24 hours at 37° C. when 1 μCi of ^3 H thymidine (Amersham) was added. After a further incubation of 15 hours at 37° C., the incorporation of radiolabel into the CTLL cells was determined by scintillation counting.
Assays conducted with murine MHC also verified that the insect cells are capable of loading peptide onto the Class I molecules. Cells expressing as few as 200-500 MHC molecules containing a particular antigen can be detected by a T-cell. […] Upon antigenic stimulation, B3/CD8 produces IL-2, measured by ^3 H thymidine incorporation in IL-2-dependenT-cell line CTLL (Gillis, et al., J. Immunol. 120: 2027 91978)). Thus, by measuring the amount of IL-2 produced, one can assay for T-cell recognition. […]

| Molecule | Kd [1] | T-cell recognition (IL-2 production by B3/CD8) (B3/CD8 T-cell hybridoma) |
| --- | --- | --- |
| CC(C)C[C@H](NC(=O)CNC(=O)[C@H](CCC(N)=O)NC(=O)[C@H](Cc1ccc(O)cc1)NC(=O)[C@@H](NC(=O)[C@H](Cc1ccc(O)cc1)NC(=O)CNC(=O)[C@@H](N)CCCNC(=N)N)C(C)C)C(=O)O [VSV-8] | 3.7 nM | – |
| ovalbumin (protein, UniProt P01012 2-386, looked up, ovalbumin (Sigma) osmotically loaded into the cells) Ovalbumin: GSIGAASMEFCFDVFKELKVHHANENIFYCPIAIMSALAMVYLGAKDSTRTQINKVVRFDKLPGFGDSIEAQCGTSVNVHSSLRDILNQITKPNDVYSFSLASRLYAEERYPILPEYLQCVKELYRGGLEPINFQTAADQARELINSWVESQTNGIIRNVLQPSSVDSQTAMVLVNAIVFKGLWEKAFKDEDTQAMPFRVTEQESKPVQMMYQIGLFRVASMASEKMKILELPFASGTMSMLVLLPDEVSGLEQLESIINFEKLTEWTSSNVMEERKIKVYLPRMKMEEKYNLTSVLMAMGITDVFSSSANLSGISSAESLKISQAVHAAHAEINEAGREVVGSAEAGVDAASVSEEFRADHPFLFCIKHIATNAVLFFGRCVSP | – | no recognition occurred |
